Experimental data as given in patent US20150148234A1, “HERBICIDE-RESISTANT SUNFLOWER PLANTS WITH MULTIPLE HERBICIDE RESISTANT ALLELES OF AHASL1 AND METHODS OF USE” (NIDERA S.A., priority 2013, published 2015).

Experiments:
[1] = tested on: lines carrying at least one allele A122T (A122T/A122T, A122T/A205V, A122/WT); experiment: field trial, imazapyr at V8 or R1 stage (Example 4); details: 160 g ai/ha applied at R1; 14 DAT
[2] = tested on: F2 population from the cross GM40 (A122T)/HA425 (A205V); experiment: imazapyr challenge of segregating population (Example 1); assay type: in vivo, sunflower; details: 320 g a.i. ha-1; eighty F2 plants
Description: To determine the phenotypic interactions of the resistance gene A122T and the Imr1 gene (A205V) already described in IMI-R sunflowers (HA425), F1, F2 and BC1F1 populations from the cross GM40 (A122T)/HA425 (A205V) were evaluated at two herbicide applications rates (80 and 320 g. a. i. Ha^−1 of imazapyr). […] When F2 and BC1F1 populations were scored at the higher herbicide rate (320 g. a. i. Ha-1), which discriminates both parents, segregation for susceptibility was observed. Only two phenotypic classes could be detected, a resistant class with plants without any injury or slight symptoms and a susceptible phenotype that was killed like the control line HA425.
The AHASL1 gene in sunflower presents a simple sequence repeat (SSR) polymorphism which discriminates lines carrying the Imr1 allele from any other sunflower genotype (Kolkman et al. (2004) Theor. Appl. Genet. 109: 1147-1159). […] This length variant polymorphism detected in GM40 and HA425 was exploited to investigate the segregation in the F2 and BC1F1 populations derived from crossing both lines. […] The cosegregation of herbicide resistance phenotypes and AHASL1 haplotypes was further assessed on 50 BC1F1 progeny segregating for resistance. […]

SMILES: CC(C)C1(C)N=C(c2ncccc2C(=O)O)NC1=O (stereo not drawn) [imazapyr]
- PI (0-50), group with chlorosis symptoms only [1]: less than 11.7
- plants killed by the herbicide (S) [2]: 22 plants
- plants with no symptoms or a slight injury (R) [2]: 58 plants
